From PubChem BioAssay AID256 (DTP/NCI, 2004)
Where “and” joins values, the source holds several entries; their conditions need not be identical. Equal entries are not always repeated. Toxic doses and inconclusive results are not listed. Rule for the calls: active = survival T/C of 150% or more; inactive = T/C below 125% in these data.

Test system: CD2F1 mice, L1210 leukemia ip, survival T/C
Assay: NCI In Vivo Anticancer Drug Screen. Data for tumor model L1210 Leukemia (intraperitoneal) in CD2F1 (CDF1) mice
Settings: endpoint: mean survival time, higher = longer survival
Outline: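 Implant tumor; dose compound or vehicle; measure endpoint in both groups; report treated divided by control.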

[1] = dose: 100.0 mg/kg/injection, schedule: Q01DX001 (ip), vehicle: saline with Tween-80
[2] = dose: 100.0 mg/kg/injection, schedule: Q04DX003 (ip), vehicle: saline with Tween-80
[3] = dose: 200.0 mg/kg/injection, schedule: Q01DX001 (ip), vehicle: saline with Tween-80
[4] = dose: 200.0 mg/kg/injection, schedule: Q04DX003 (ip), vehicle: saline with Tween-80
[5] = dose: 400.0 mg/kg/injection, schedule: Q01DX001 (ip), vehicle: saline with Tween-80
[6] = dose: 400.0 mg/kg/injection, schedule: Q04DX003 (ip), vehicle: saline with Tween-80
[7] = dose: 100.0 mg/kg/injection, schedule: Q01DX001 (ip), vehicle: saline
[8] = dose: 200.0 mg/kg/injection, schedule: Q01DX001 (ip), vehicle: saline
[9] = dose: 400.0 mg/kg/injection, schedule: Q01DX001 (ip), vehicle: saline
[10] = dose: 100.0 mg/kg/injection, schedule: Q01DX009 (ip), vehicle: saline with Tween-80
[11] = dose: 200.0 mg/kg/injection, schedule: Q01DX009 (ip), vehicle: saline with Tween-80
[12] = dose: 100.0 mg/kg/injection, schedule: Q04DX002 (ip), vehicle: saline
[13] = dose: 100.0 mg/kg/injection, schedule: Q04DX002 (ip), vehicle: saline with Tween-80
[14] = dose: 200.0 mg/kg/injection, schedule: Q04DX002 (ip), vehicle: saline with Tween-80
[15] = dose: 400.0 mg/kg/injection, schedule: Q01DX009 (ip), vehicle: saline with Tween-80

Measured: T/C

CC1(C)CC(N2CCCOP2(=O)N(CCCl)CCCl)CC(C)(C)N1 (stereo not drawn)
inactive: dose: 62.5 mg/kg/injection, schedule: Q01DX001 (ip), vehicle: water 105 % of control | dose: 125.0 mg/kg/injection, schedule: Q01DX001 (ip), vehicle: water 100 % of control | dose: 250.0 mg/kg/injection, schedule: Q01DX001 (ip), vehicle: water 106 % of control

CC(F)(F)Cc1ccccc1
inactive: [1] 110 % of control | [2] 98 % of control | [3] 102 % of control | [4] 95 % of control | [5] 102 % of control | [6] 98 % of control

Cc1[nH]c(=S)[nH]c(=O)c1Cc1c(O)ccc2ccccc12
inactive: [7] 97 % of control | [8] 100 % of control | [9] 103 % of control

CC(=O)NNC(=O)c1ccc(Br)cc1
inactive: [10] 107 % of control | [11] 119 % of control

O=C1C(O)CC(c2ccccc2)N1c1ccccc1 (stereo not drawn)
inactive: [2] 95 % of control | [4] 95 % of control | [6] 100 % of control

CCCC1C(CC)C=NN1C (stereo not drawn)
inactive: [7] 102 % of control | [8] 101 % of control | [9] 98 % of control

CCCCCCCCCCCCNC(=O)c1ccc[n+](C)c1
inactive: dose: 12.5 mg/kg/injection, schedule: Q01DX009 (ip), vehicle: saline 88 % of control | dose: 12.5 mg/kg/injection, schedule: Q04DX003 (ip), vehicle: saline 93 % of control | dose: 25.0 mg/kg/injection, schedule: Q04DX003 (ip), vehicle: saline 97 % of control | dose: 50.0 mg/kg/injection, schedule: Q04DX003 (ip), vehicle: saline 101 % of control

[Cl][Mo]([Cl])([Cl])[Cl].[Cl][Mo]([Cl])([Cl])[Cl]
inactive: [12] 112 % of control | dose: 200.0 mg/kg/injection, schedule: Q04DX002 (ip), vehicle: saline 87 % of control | dose: 400.0 mg/kg/injection, schedule: Q04DX002 (ip), vehicle: saline 108 % of control

NC(=S)N/N=C\c1nccc2c(C(F)(F)F)cccc12
inactive: [13] 124 % of control | [14] 89 % of control

CCOC(=O)c1ccc(OC(=O)Nc2ccccc2OC)cc1
inactive: [10] 96 % of control | [2] 103 % of control | [11] 92 % of control | [4] 100 % of control | [15] 94 % of control | [6] 102 % of control

CNC(=O)OCc1c(COC(=O)NC)c(C)n(-c2ccc(OC)cc2)c1C
inactive: dose: 3.12 mg/kg/injection, schedule: Q01DX009 (ip), vehicle: Klucel (hydroxypropylcellulose) (HPC) 101 % of control and 106 % of control | dose: 6.25 mg/kg/injection, schedule: Q01DX009 (ip), vehicle: Klucel (hydroxypropylcellulose) (HPC) 101 % of control and 106 % of control | dose: 12.5 mg/kg/injection, schedule: Q01DX009 (ip), vehicle: Klucel (hydroxypropylcellulose) (HPC) 113 % of control and 102 % of control | dose: 25.0 mg/kg/injection, schedule: Q01DX009 (ip), vehicle: Klucel (hydroxypropylcellulose) (HPC) 121 % of control and 98 % of control | dose: 50.0 mg/kg/injection, schedule: Q01DX009 (ip), vehicle: Klucel (hydroxypropylcellulose) (HPC) 116 % of control and 121 % of control | dose: 100.0 mg/kg/injection, schedule: Q01DX009 (ip), vehicle: Klucel (hydroxypropylcellulose) (HPC) 87 % of control

CCN(C(=O)Nc1cccc2ccccc12)c1ccccc1
inactive: [2] 104 % of control | [4] 101 % of control | [6] 109 % of control

O=c1[nH]cc([N+](=O)[O-])c(=O)[nH]1
inactive: [13] 97 % of control | [14] 97 % of control | dose: 400.0 mg/kg/injection, schedule: Q04DX002 (ip), vehicle: saline with Tween-80 101 % of control

O=C(O)C1C2CCCCC2=C2CCCCC2C1C(=O)O (stereo not drawn)
inactive: [10] 98 % of control | [11] 104 % of control

COC(=O)c1ccccc1N=NNc1cccc(SC)c1
inactive: dose: 50.0 mg/kg/injection, schedule: Q01DX009 (ip), vehicle: saline with Tween-80 95 % of control | [10] 103 % of control | [11] 97 % of control

CCCCS(=O)C(Cl)(CCC)C(C)(C)O (stereo not drawn)
inactive: [2] 97 % of control | [4] 93 % of control | [6] 97 % of control

CCOC(=O)/C=C/SCC(N)C(=O)OCC (stereo not drawn)
inactive: dose: 25.0 mg/kg/injection, schedule: Q04DX002 (ip), vehicle: saline 98 % of control | dose: 50.0 mg/kg/injection, schedule: Q04DX002 (ip), vehicle: saline 94 % of control | [7] 101 % of control | [12] 96 % of control

CC(C)(C(O)c1ccccc1)[N+](=O)[O-] (stereo not drawn)
inactive: [1] 105 % of control | [10] 102 % of control | [3] 102 % of control | [11] 95 % of control | [5] 98 % of control | [15] 96 % of control

CC(C(C(=O)O)S(=O)(=O)O)C(C(=O)O)S(=O)(=O)O (stereo not drawn)
inactive: dose: 12.5 mg/kg/injection, schedule: Q01DX001 (ip), vehicle: other 91 % of control | dose: 25.0 mg/kg/injection, schedule: Q01DX001 (ip), vehicle: other 95 % of control | dose: 50.0 mg/kg/injection, schedule: Q01DX001 (ip), vehicle: other 98 % of control
